Laboratory results taken from patent US20130023504A1, “Modulation of Prostaglandin/Cyclooxygenase Metabolic Pathways” (HUNTER-FLEMING LIMITED, priority 2006, published 2013).
Several values for one entry are separate records, joined by “and”; a condition that tells them apart may be missing. Equal values may be shown once.

Tested on: rat sensory neurones
Experiment: Cisplatin-induced loss of neurite density in primary dorsal root ganglia sensory neurones (anti β-Tubulin)
Assay type: cell-based
Conditions: for % Control without cisplatin (neurite length) / Mean neurite length: cisplatin 3 μg/ml
Protocol: Primary cultures of dissociated dorsal root ganglia sensory neurones were incubated with 3 μg/ml cisplatin, with and without 7β-OH EPIA for 48 hours and 72 hours and the following parameters were evaluated:
neurite network density stained with an anti 8-Tubulin antibody
Rat sensory neurones were prepared according to the method described by Hall et al 1997 [Hall et al. (J. Neurosci. 1997 Apr. 15; 17(8); 2775-84]. Briefly, a female rat (15 days gestation) was killed by cervical dislocation (Rats Wistar; Janvier, Le Genest-St-lsle, France) and the foetuses removed from the uterus. Their spinal cords with the dorsal root ganglia (DRG) were removed and placed in ice-cold medium of Leibovitz (L15, Fisher 11415-049) containing Penicillin 50 UI/ml-Streptomycin 50 μg/ml (PS, 1%) and bovine serum albuminutes (BSA 1%, Sigma A6003). The DRG were recovered and dissociated by trypsinisation for 20 minutes at 37° C. (trypsin EDTA 10×, 10%, Fisher 15400054) diluted in PBS without calcium and magnesium (Fisher 2007-03). The reaction was stopped by addition of Dulbecco modified Eagle medium (DMEM, Fisher 21969-035) containing DNase I grade II (0.1 mg/ml Roche diagnostic 104159) and foetal bovine serum (FBS 10%, Fisher 10270-098). The cell suspension was triturated with a 10 ml pipette and centrifuged at 350×g for 10 minutes at room temperature. The pellet of dissociated cells was then resuspended in defined culture medium.
Viable cells were counted in a Neubauer cytometer using the trypan blue exclusion test (Sigma) and seeded at a density of 30 000 cells/well in 96 well-plates (Nunc). Wells were pre-coated with poly-L-lysine (10 μg/ml, Sigma P2636) in ultra pure sterile water (Merck Eurolab 60759.01).
Cells were allowed to adhere for 2 h and maintained in a humidified incubator at 37° C. in 5% CO2/95% air atmosphere.
After 5 days of culture, the culture medium was changed into a defined culture medium following the different conditions described below:
Test compound 7β-OH EPIA (1 nM, 10 nM and 100 nM)+cisplatin (3 μg/ml)
Reference compound NGF (10 ng/ml)+cisplatin (3 μg/ml)
Six wells per condition were carried out to assess neuronal survival. After 48 hours and 72 hours of incubation, the neuronal cells were fixed for 5 minutes in an ethanol/acetic acid solution (95%/5%) at −20° C. and rinsed 3 times in PBS.
Cell bodies of sensory neurones were labelled by monoclonal anti MAP-2 antibody (Sigma M4403) and the neurite of sensory neurones were labelled by monoclonal β-Tubulin antibody (Sigma T8660). These antibodies were diluted at 1:400 in incubation solution (PBS with 5% of FCS and 0.1% of saponin, Sigma S-7900). These antibodies specifically label neurone cell bodies and neuritis, respectively.
After 2 hours of incubation, the cells were washed in PBS and incubated with Alexa Fluor 488 goat anti mouse IgG (Molecular Probes A11001) diluted at 1:300 in incubation solution to reveal the MAP-2 and the β-Tubulin antibodies. Cell nuclei were stained with a fluorescent marker (Hoechst staining solution, SIGMA H6024, 1 μg/ml in incubation solution during 1 hour).
For each condition, 2 pictures per well (12 pictures per condition) were taken using In Cell Analyzer 1000 (Amersham Biosciences) controlled by the computer software In Cell Analyzer 1000 3.2. For the MAP-2 labelling, the magnification was ×10, for the β-Tubulin labelling, the magnification was ×20. For each labelling, all the images were taken in the same conditions.
Analysis of the number of cell bodies labelled with anti-MAP-2 antibodies, and total length of neurites labelled with anti β-Tubulin antibodies, were carried out using In Cell Analyzer 1000 3.2.Workstation software. The results were expressed in percentage compared to the vehicle. The comparisons of each group were carried out using the unpaired T test.

CC12CCC3C(C1CCC2=O)[C@@H](O)C[C@H]1C[C@@H](O)CCC31C (stereo partly drawn) [Compound 7β-OH-EPIA, 7β-hydroxy-EPIAndrosterone]
reduction of cisplatin-induced toxicity (neurite loss) (1 nM, 48 hours): 90.7% | reduction of cisplatin-induced toxicity (neurite loss) (1 nM, 72 hours): 70.8% | % Control without cisplatin (neurite length) (1 nM, 48 hours): 99% | Mean neurite length (1 nM, 48 hours): 5378 μm and 5377.89 μm | % Control without cisplatin (neurite length) (1 nM, 72 hours): 93% | Mean neurite length (1 nM, 72 hours): 4948 μm and 4947.99 μm | reduction of cisplatin-induced toxicity (neurite loss) (10 nM, 48 hours): 101% | % Control without cisplatin (neurite length) (10 nM, 48 hours): 102% | Mean neurite length (10 nM, 48 hours): 5549 μm and 5549.41 μm | % Control without cisplatin (neurite length) (10 nM, 72 hours): 80% | Mean neurite length (10 nM, 72 hours): 4275.04 μm | % Control without cisplatin (neurite length) (100 nM, 48 hours): 81% | Mean neurite length (100 nM, 48 hours): 4442.51 μm | % Control without cisplatin (neurite length) (100 nM, 72 hours): 77% | Mean neurite length (100 nM, 72 hours): 4080.89 μm
